Results published in the supplement of paper PMC10307832.

Legend:
Assay in all cases: relative viability (nuclei count vs DMSO), 5 days (fraction); higher = more cells survive
[1] = compound: C1CC(C2=C(C1)C3=C(N2)C=CC(=C3)Cl)C(=O)N [Selisistat] + COc1cccc2cc(-c3nc([C@H]4CC[C@H](C(=O)O)CC4)n4ncnc(N)c34)[nH]c12 [OSI-027] (partner 0.5 µM)
Outline: (§1)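 Lung cancer cell lines, seeded in 1536-well plates, were treated the following day by pin tool with a single drug or with five library-drug doses (not always all listed) in √10 steps on top of a fixed anchor-drug dose. Cells were fixed and nuclei stained in one step after 5 days, and nuclei were counted. Relative viability is the nuclei count for treated wells divided by that for vehicle wells, reported as medians of duplicate plates.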

[2] = compound: C1CC(C2=C(C1)C3=C(N2)C=CC(=C3)Cl)C(=O)N [Selisistat] + C[C@]1(O)C[C@@H](c2nc(-c3ccc4ccc(-c5ccccc5)nc4c3)c3c(N)nccn32)C1 [Linsitinib] (partner 1 µM)
Outline: as §1

[3] = compound: C1CC(C2=C(C1)C3=C(N2)C=CC(=C3)Cl)C(=O)N [Selisistat] + N=C(N)NC(=N)NCCc1ccccc1 [Phenformin] (partner 250 µM)
Outline: as §1

[4] = compound: c1ccc2c(CCNc3ccc(Nc4ccncc4)cc3)c[nH]c2c1 [Serdemetan] + CCNC(=O)c1noc(-c2cc(C(C)C)c(O)cc2O)c1-c1ccc(CN2CCOCC2)cc1 [Luminespib] (partner 0.01 µM)
Outline: as §1

NCI-H1666
relative viability ([1]; first compound 0.4 µM): 0.794 | relative viability ([1]; first compound 1.265 µM): 0.744 | relative viability ([1]; first compound 4 µM): 0.841 | relative viability ([1]; first compound 12.65 µM): 0.673 | relative viability ([1]; first compound 40 µM): 0.711 | relative viability ([2]; first compound 0.4 µM): 1.18 | relative viability ([2]; first compound 1.265 µM): 0.743 | relative viability ([2]; first compound 4 µM): 0.902 | relative viability ([2]; first compound 12.65 µM): 0.823 | relative viability ([2]; first compound 40 µM): 0.605 | relative viability ([3]; first compound 0.4 µM): 0.514 | relative viability ([3]; first compound 1.265 µM): 0.606 | relative viability ([3]; first compound 4 µM): 0.582 | relative viability ([3]; first compound 12.65 µM): 0.538 | relative viability ([3]; first compound 40 µM): 0.529 | relative viability ([4]; first compound 0.04 µM): 1.01 | relative viability ([4]; first compound 0.1265 µM): 0.992 | relative viability ([4]; first compound 0.4 µM): 1.05 | relative viability ([4]; first compound 1.265 µM): 0.869 | relative viability ([4]; first compound 4 µM): 0.811

LC-2-ad
relative viability ([1]; first compound 0.4 µM): 0.987 | relative viability ([1]; first compound 4 µM): 0.693 | relative viability ([1]; first compound 12.65 µM): 0.85 | relative viability ([1]; first compound 40 µM): 0.794 | relative viability ([2]; first compound 0.4 µM): 0.88 | relative viability ([2]; first compound 1.265 µM): 0.846 | relative viability ([2]; first compound 4 µM): 0.867 | relative viability ([2]; first compound 12.65 µM): 0.808 | relative viability ([2]; first compound 40 µM): 0.856 | relative viability ([3]; first compound 0.4 µM): 0.625 | relative viability ([3]; first compound 4 µM): 0.437 | relative viability ([3]; first compound 12.65 µM): 0.582 | relative viability ([3]; first compound 40 µM): 0.632 | relative viability ([4]; first compound 0.04 µM): 0.951 | relative viability ([4]; first compound 0.1265 µM): 0.944 | relative viability ([4]; first compound 0.4 µM): 0.969 | relative viability ([4]; first compound 1.265 µM): 0.898 | relative viability ([4]; first compound 4 µM): 0.899

SK-LU-1
relative viability ([1]; first compound 0.4 µM): 0.431 | relative viability ([1]; first compound 1.265 µM): 0.366 | relative viability ([1]; first compound 4 µM): 0.334 | relative viability ([1]; first compound 12.65 µM): 0.359 | relative viability ([1]; first compound 40 µM): 0.416 | relative viability ([2]; first compound 0.4 µM): 1.18 | relative viability ([2]; first compound 1.265 µM): 1.28 | relative viability ([2]; first compound 4 µM): 1.35 | relative viability ([2]; first compound 12.65 µM): 1.1 | relative viability ([2]; first compound 40 µM): 1.04 | relative viability ([3]; first compound 0.4 µM): 0.504 | relative viability ([3]; first compound 1.265 µM): 0.528 | relative viability ([3]; first compound 4 µM): 0.465 | relative viability ([3]; first compound 12.65 µM): 0.542 | relative viability ([3]; first compound 40 µM): 0.625 | relative viability ([4]; first compound 0.04 µM): 0.19 | relative viability ([4]; first compound 0.1265 µM): 0.201 | relative viability ([4]; first compound 0.4 µM): 0.223 | relative viability ([4]; first compound 4 µM): 0.207

COR-L 105
relative viability ([1]; first compound 0.4 µM): 0.755 | relative viability ([1]; first compound 1.265 µM): 0.624 | relative viability ([1]; first compound 12.65 µM): 0.712 | relative viability ([1]; first compound 40 µM): 0.584 | relative viability ([2]; first compound 0.4 µM): 0.755 | relative viability ([2]; first compound 1.265 µM): 0.918 | relative viability ([2]; first compound 4 µM): 0.933 | relative viability ([2]; first compound 12.65 µM): 1.02 | relative viability ([2]; first compound 40 µM): 0.914 | relative viability ([3]; first compound 0.4 µM): 0.479 | relative viability ([3]; first compound 1.265 µM): 0.439 | relative viability ([3]; first compound 12.65 µM): 0.371 | relative viability ([3]; first compound 40 µM): 0.421 | relative viability ([4]; first compound 0.04 µM): 1.3 | relative viability ([4]; first compound 0.1265 µM): 0.911 | relative viability ([4]; first compound 0.4 µM): 0.64 | relative viability ([4]; first compound 1.265 µM): 0.693 | relative viability ([4]; first compound 4 µM): 0.588

NCI-H1975
relative viability ([1]; first compound 0.4 µM): 0.678 | relative viability ([1]; first compound 1.265 µM): 0.718 | relative viability ([1]; first compound 4 µM): 0.62 | relative viability ([1]; first compound 12.65 µM): 0.659 | relative viability ([1]; first compound 40 µM): 0.626 | relative viability ([2]; first compound 0.4 µM): 0.849 | relative viability ([2]; first compound 1.265 µM): 0.805 | relative viability ([2]; first compound 4 µM): 0.871 | relative viability ([2]; first compound 12.65 µM): 0.831 | relative viability ([2]; first compound 40 µM): 0.813 | relative viability ([3]; first compound 0.4 µM): 0.419 | relative viability ([3]; first compound 1.265 µM): 0.422 | relative viability ([3]; first compound 4 µM): 0.366 | relative viability ([3]; first compound 12.65 µM): 0.41 | relative viability ([3]; first compound 40 µM): 0.382 | relative viability ([4]; first compound 0.04 µM): 0.371 | relative viability ([4]; first compound 0.1265 µM): 0.393 | relative viability ([4]; first compound 0.4 µM): 0.176 | relative viability ([4]; first compound 1.265 µM): 0.18 | relative viability ([4]; first compound 4 µM): 0.17

NCI-H1993
relative viability ([1]; first compound 0.4 µM): 0.506 | relative viability ([1]; first compound 1.265 µM): 0.584 | relative viability ([1]; first compound 4 µM): 0.618 | relative viability ([1]; first compound 12.65 µM): 0.554 | relative viability ([1]; first compound 40 µM): 0.542 | relative viability ([2]; first compound 0.4 µM): 0.719 | relative viability ([2]; first compound 1.265 µM): 0.72 | relative viability ([2]; first compound 12.65 µM): 0.648 | relative viability ([2]; first compound 40 µM): 0.773 | relative viability ([3]; first compound 0.4 µM): 0.518 | relative viability ([3]; first compound 1.265 µM): 0.545 | relative viability ([3]; first compound 4 µM): 0.528 | relative viability ([3]; first compound 12.65 µM): 0.556 | relative viability ([3]; first compound 40 µM): 0.537 | relative viability ([4]; first compound 0.04 µM): 0.981 | relative viability ([4]; first compound 0.1265 µM): 0.778 | relative viability ([4]; first compound 0.4 µM): 0.811 | relative viability ([4]; first compound 1.265 µM): 0.768 | relative viability ([4]; first compound 4 µM): 0.758

RERF-LC-KJ
relative viability ([1]; first compound 0.4 µM): 0.742 | relative viability ([1]; first compound 1.265 µM): 0.525 | relative viability ([1]; first compound 4 µM): 0.51 | relative viability ([1]; first compound 12.65 µM): 0.532 | relative viability ([1]; first compound 40 µM): 0.533 | relative viability ([2]; first compound 0.4 µM): 0.969 | relative viability ([2]; first compound 1.265 µM): 0.878 | relative viability ([2]; first compound 4 µM): 0.937 | relative viability ([2]; first compound 12.65 µM): 0.88 | relative viability ([2]; first compound 40 µM): 0.775 | relative viability ([3]; first compound 0.4 µM): 0.5 | relative viability ([3]; first compound 1.265 µM): 0.412 | relative viability ([3]; first compound 4 µM): 0.399 | relative viability ([3]; first compound 12.65 µM): 0.338 | relative viability ([3]; first compound 40 µM): 0.362 | relative viability ([4]; first compound 0.04 µM): 1.43 | relative viability ([4]; first compound 0.1265 µM): 1.16 | relative viability ([4]; first compound 0.4 µM): 1.17 | relative viability ([4]; first compound 1.265 µM): 1.1 | relative viability ([4]; first compound 4 µM): 1.12

NCI-H23
relative viability ([1]; first compound 0.4 µM): 0.56 | relative viability ([1]; first compound 1.265 µM): 0.602 | relative viability ([1]; first compound 4 µM): 0.508 | relative viability ([1]; first compound 12.65 µM): 0.529 | relative viability ([1]; first compound 40 µM): 0.605 | relative viability ([2]; first compound 0.4 µM): 0.631 | relative viability ([2]; first compound 1.265 µM): 0.466 | relative viability ([2]; first compound 12.65 µM): 0.579 | relative viability ([2]; first compound 40 µM): 0.6 | relative viability ([3]; first compound 0.4 µM): 0.731 | relative viability ([3]; first compound 1.265 µM): 0.824 | relative viability ([3]; first compound 4 µM): 0.658 | relative viability ([3]; first compound 12.65 µM): 0.773 | relative viability ([3]; first compound 40 µM): 0.786 | relative viability ([4]; first compound 0.04 µM): 0.219 | relative viability ([4]; first compound 0.1265 µM): 0.223 | relative viability ([4]; first compound 0.4 µM): 0.214 | relative viability ([4]; first compound 1.265 µM): 0.211 | relative viability ([4]; first compound 4 µM): 0.196
